The text below walks through data of patent US20240173375A1, “CHEMOTACTIC AUTOPHAGY-INHIBITING PEPTIDE, COMPOSITIONS AND METHODS RELATED THERETO” (Biotempt B.V., priority 2021, published 2024).

No end group written: not given here.

One data set relates to autophagy. The settings on record: cited from earlier work; for inhibitory effects on autophagy: human cells (Meijer et al. 2015).
A further data set relates to mTOR kinases. The settings on record: cited from earlier work; for activators of mTOR or inhibitors of autophagy, compared with other amino acids: alone or in combination, literature search November 2011.
The nature of data set [1]: Distribution and elimination of intravenously injected [14C]-AQGV from mice. The format is in vivo. On the procedure: The present study, which was conducted by TNO Biosciences, Utrechtseweg, Netherlands, was designed to provide data on the distribution and metabolism of [14C]-AQGV (SEQ ID NO:11) (Ala-Gln-[1-^14C]Gly-Val) in male CD-1 mice following a single intravenous dose of 50 mg/kg. To this end, mice were sacrificed at 10, 30 and 60 minutes, and 6 and 24 hours after administration of radiolabeled AQGV (SEQ ID NO:11), counts in various tissues were determined, and the radioactivity present in the urine and plasma were analyzed by HPLC.

With `C[C@H](N)C(=O)O` [L-Alanine], in the data set with autophagy, the “Literature-based activity: autophagy” value is on record as “DOWN” and the “inhibitory effects on autophagy” value was “most prominent”. Further, the “activators of mTOR or inhibitors of autophagy, compared with other amino acids” value in the data set on mTOR kinases is reported as “more potent”.

Turning to `N=C(N)NCCC[C@H](N)C(=O)O` [L-Arginine], the “Literature-based activity: autophagy” value with autophagy is on record as “DOWN”. Further, in the data set with mTOR kinases, the “activators of mTOR or inhibitors of autophagy, compared with other amino acids” value is “more potent” and the “Literature-based activity: mTOR kinases” value was “activate”.

Turning to `NC(=O)CC[C@H](N)C(=O)O` [L-Glutamine], in the data set with autophagy, the “Literature-based activity: autophagy” value was “DOWN” and the “inhibitory effects on autophagy” value is “most prominent”. In the data set on mTOR kinases, the “activators of mTOR or inhibitors of autophagy, compared with other amino acids” value is reported as “more potent” and the “Literature-based activity: mTOR kinases” value is reported as “activate”.

`NCC(=O)O` [L-Glycine]: in the data set on autophagy, the “Literature-based activity: autophagy” value was “DOWN”. In the data set with mTOR kinases, the “activators of mTOR or inhibitors of autophagy, compared with other amino acids” value is given as “more potent”.

On to `N[C@@H](Cc1c[nH]cn1)C(=O)O` [L-Histidine], for which the “Literature-based activity: mTOR kinases” value with mTOR kinases was “down”.

Turning to `NCCCC[C@H](N)C(=O)O` [L-Lysine], in the data set on mTOR kinases, the “activators of mTOR or inhibitors of autophagy, compared with other amino acids” value is reported as “no or opposite effects” and the “Literature-based activity: mTOR kinases” value is on record as “down”.

In the case of `CSCC[C@H](N)C(=O)O` [L-Methionine], in the data set with mTOR kinases, the “activators of mTOR or inhibitors of autophagy, compared with other amino acids” value was “no or opposite effects” and the “Literature-based activity: mTOR kinases” value is “partial inhibit”.

`C[C@@H](O)[C@H](N)C(=O)O` [L-Threonine]: in the data set with mTOR kinases, the “activators of mTOR or inhibitors of autophagy, compared with other amino acids” value is given as “no or opposite effects” and the “Literature-based activity: mTOR kinases” value was “down”.

`CC(C)[C@H](N)C(=O)O` [L-Valine]: in the data set with mTOR kinases, the “activators of mTOR or inhibitors of autophagy, compared with other amino acids” value is listed as “more potent” and the “Literature-based activity: mTOR kinases” value is given as “activate”.

For `N[C@@H](CCC(=O)O)C(=O)O` [glutamate, L-Glutamic Acid], the “activators of mTOR or inhibitors of autophagy, compared with other amino acids” value with mTOR kinases is on record as “no or opposite effects”.

In the case of `N[C@@H](Cc1ccccc1)C(=O)O` [phenylalanine, L-Phenylalanine], the “activators of mTOR or inhibitors of autophagy, compared with other amino acids” value in the data set on mTOR kinases was “no or opposite effects”.

Turning to `N[C@@H](CO)C(=O)O` [serine, L-Serine], in the data set with mTOR kinases, the “activators of mTOR or inhibitors of autophagy, compared with other amino acids” value is “no or opposite effects”.

As to `N[C@@H](Cc1ccc(O)cc1)C(=O)O` [tyrosine, L-Tyrosine], the “activators of mTOR or inhibitors of autophagy, compared with other amino acids” value in the data set with mTOR kinases is reported as “no or opposite effects”.

“Ala-Gln-[1-^14C]Gly-Val (AQGV; also: 14C label at C1 of Gly ([1-14C]Gly)) [[14C]-AQGV]”: the “average total recovery of radioactivity” value in data set [1] (10 minutes after dose administration) came out at 83.2%; in data set [1] (30 minutes after dose administration), 70.5%; in data set [1] (60 minutes after dose administration), 62.9%; in data set [1] (6 hours after dose administration), 52.6%; in data set [1] (24 hours after dose administration) it was 50.8%. In addition, the “administered radioactivity excreted in feces” value in data set [1] (after 24 hours) was 2.6%. The “administered radioactivity excreted in urine” value in data set [1] (after 24 hours) worked out at 10.2%. The “radioactivity in the blood, amount if all counts were in intact peptide” value in data set [1] (blood, 10 minutes after single i.v. dose of 50 mg/kg) amounted to 17.2 µg/g. The “concentration of "peptide" (radioactivity)” value in data set [1] (kidneys, after 10 minutes) was found to be 362 µg/g; in data set [1] (kidneys, after 24 hours), 61.9 µg/g; in data set [1] (liver, after 10 minutes), 105 µg/g; in data set [1] (liver, after 24 hours) it was 37.6 µg/g; in data set [1] (lung, after 10 minutes), 75.2 µg/g; in data set [1] (skin, after 24 hours), 37.5 µg/g. The “concentration of "peptide" (radioactivity)” value in data set [1] (spleen, after 10 minutes) stood at 74.7 µg/g; in data set [1] (spleen, after 24 hours), 39.3 µg/g; in data set [1] (testis, after 10 minutes), 85.7 µg/g; in data set [1] (thymus, after 24 hours) it was 43.1 µg/g. In addition, the “time to full hydrolysis of the peptide after administration” value in data set [1] (mice) came out at 15 min. In addition, the “parent compound in plasma (HPLC)” value in data set [1] (plasma, after 10 minutes, 50 mg/kg i.v.) is listed as “No parent compound could be detected”. Besides, in data set [1] (up to 24 hours), the “administered radioactivity exhaled as volatiles, most likely 14C-CO2” value is reported as “About 50%”. Further, the “parent compound in urine (HPLC)” value in data set [1] (urine, 50 mg/kg i.v.) is on record as “No parent compound was detected”.
